Reference: patent US20220370416A1, “COMPOUNDS AND METHODS FOR TARGETED DEGRADATION OF KRAS” (Arvinas Operations, Inc., priority 2020, published 2022)

How the values were obtained:
HiBit-KRAS^G12C [1] = biological target: T1, HiBit-KRAS^G12C (Homo sapiens, UniProt P01116, G12C); assay: HiBit degradation assay in MiaPaCa-2 HiBit-KRas^G12C cells; type: cell-based; details: 24 hours; for KRas^G12C-HiBiT (MiaPaCa; 0.1% DMSO) DMax / KRas^G12C-HiBiT (MiaPaCa; 0.5% DMSO) DMax / DC50: MiaPaCa-2 HiBit-KRas^G12C cells; for KRas^G12C-HiBiT (MiaPaCa; 0.1% DMSO) DMax / KRas^G12C-HiBiT (MiaPaCa; 0.5% DMSO) DMax / Dmax: maximum degradation; for Dmax: MIA PaCa-2, MiaPaCa-2 HiBit-KRas^G12C cells; for DC50: read-out: KRas^G12C-HiBiT (MiaPaCa; 0.5% DMSO) IC50
T1 sequence (P01116 1-186 isoform P01116-2 G12C limits assumed): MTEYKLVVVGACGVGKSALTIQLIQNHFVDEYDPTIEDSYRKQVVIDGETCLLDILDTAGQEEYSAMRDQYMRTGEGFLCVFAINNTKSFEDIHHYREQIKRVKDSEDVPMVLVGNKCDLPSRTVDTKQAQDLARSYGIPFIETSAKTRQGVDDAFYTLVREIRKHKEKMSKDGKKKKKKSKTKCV
Experimental: Reagents. SW1573 (CRL-2170) and MiaPaCa-2 (CRL-1420) cells were purchased from ATCC. Both cell lines are […] for the G12C mutation in KRAS. SW1573 cells were cultured in DMEM+F12+Glutamax (+Sodium Bicarbonate, +sodium pyruvate, Thermofisher scientific, #10565) supplemented with 10% FBS (Thermofisher scientific, #2060357) and 1% Antibiotic-Antimycotic (Thermofisher scientific, #15240096). MiaPaCa-2 cells were cultured in DMEM+Glutamax media (Thermofisher scientific, #10566) supplemented with 10% FBS (Thermofisher scientific, #2060357) and 1% Antibiotic-Antimycotic (Thermofisher scientific, #15240096). For degradation assays, 384 well plates were purchased from Corning (Corning® CellBIND® 384-well Flat Clear Bottom Black Polystyrene Microplates, Low Flange, #3770). Gambogic acid was purchased from Selleckchem (#S2448). Alamar blue was purchased from Thermofisher scientific (A50101) and used according to manufacturer instructions. The Nano-Glo® HiBit Lytic Detection System and Nano-Glo® HiBit Blotting System were purchased from Promega (#N3050 and #N2410) and used according to manufacturer instructions.
To create the MiaPaCa-2 HiBit-KRAS^G12C cell line, CRISPR-Cas9 was used to insert the HiBit tag onto the N-terminus of one or more of the four endogenous KRAS^G12C alleles. After knock-in of the tag, individual clones were isolated by single cell dilution and screened for HiBit insertion by PCR. Clones containing the HiBit tag were sequenced and one was identified that contained the desired HiBit-KRAS^G12C sequence at one allele while the remaining three KRAS^G12C alleles were unaffected. This line was used for all subsequent studies.
Either SW1573 HiBit-KRas^G12C or MiaPaCa-2 HiBit-KRas^G12C cells were plated at 9000 cells/well in a 384 well plate (Corning #3770). Exemplary heterobifunctional molecules and positive controls were diluted in the appropriate cell media and applied to the plated cells resulting in a final concentration titration of 10 μM to 20 nM in either 0.1% or 0.5% dimethyl sulfoxide (DMSO). Gambogic acid was used as a positive control for cytotoxicity and titrated from 10 μM to 78 nM. All assays were performed in triplicate. Cells were treated with compounds for 24 hours at 37° C. in an incubator containing 5% CO2. Following treatment, alamar blue was used to determine if any compounds led to a loss in cell viability after 24 hours. The 10× alamar blue reagent was added to a final concentration of 1× as recommended by the manufacturer and cells were returned to the incubator for 4 hours. Plates were then allowed to equilibrate to room temperature and fluorescence was measured using a Perkin-Elmer EnVision. After completion of the fluorescence read, the liquid from each well was removed and the cells were washed with PBS. The Nano-Glo® HiBiT detection reagent was prepared according to the manufacturer's instructions and added to each well after the PBS wash was removed. Following incubation at room temperature for 45 minutes, the luminescence was read using the ultra-sensitive luminescence aperture on the Envision instrument.
Fluorescence values from the alamar blue treatment were normalized to the DMSO only control for each compound titration. We hypothesized that compounds that led to a ≥50% loss in cell viability of the KRAS-independent SW1573 HiBit-KRas^G12C cells were likely generally cytotoxic and loss of HiBit-KRAS^G12C signal from these compounds may be due to lower cell number and not specific KRAS^G12C degradation. These points were therefore excluded from the data analysis for degradation. […]

HiBit-KRAS^G12C [2] = biological target: T1, HiBit-KRAS^G12C; assay: HiBit degradation assay in SW1573 HiBit-KRas^G12C cells; type: cell-based; design: expressed in transfected cells; host or cells: SW1573 (clone E6), modified pcDNA3.1 vector, TK promoter; details: 24 hours; for Dmax: SW1573, SW1573 HiBit-KRas^G12C
Summary of the method: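 HiBit-KRAS G12C degradation was measured after a 24 h compound exposure (titrated 10 μM–20 nM) in engineered SW1573 cells. Lytic HiBit luminescence, expressed relative to DMSO controls, yielded DC50 and Dmax from 4-parameter fits. Concentrations causing ≥50% loss in alamar blue viability were omitted as cytotoxic.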

[3] = SW1573 HiBit-KRas^G12C, 0.1% DMSO
[4] = SW1573 HiBit-KRas^G12C, 0.1% DMSO, read-out: KRas^G12C-HIBit (SW1573; 0.1% DMSO) DC50*
[5] = read-out: KRas^G12C-HiBiT (SW1573; 0.5% DMSO) IC50***, SW1573 HiBit-KRas^G12C, 0.5% DMSO

Compound | KRas^G12C-HiBiT (MiaPaCa; 0.1% DMSO) DMax (HiBit-KRAS^G12C [1]; 0.1% DMSO) | KRas^G12C-HiBiT (MiaPaCa; 0.5% DMSO) DMax (HiBit-KRAS^G12C [1]; 0.5% DMSO) | KRas^G12C-HiBit (SW1573; 0.1% DMSO) Dmax** (HiBit-KRAS^G12C [2]; [3]) | DC50 (HiBit-KRAS^G12C [2]; [4]) | DC50 (HiBit-KRAS^G12C [1]; 0.5% DMSO) | DC50 (HiBit-KRAS^G12C [2]; [5]) | further results
C=CC(=O)N1CCN(c2nc(OCCN3CCC(OCCOc4cc([C@H](C(=O)N5C[C@H](O)C[C@H]5C(=O)N[C@@H](C)c5ccc(-c6scnc6C)cc5)C(C)C)on4)CC3)nc3c(F)c(-c4cc(O)cc5ccccc45)c(Cl)cc23)C[C@@H]1CC#N (atropisomer, axis not shown) [Compound 4, (2S,4R)-1-((R)-2-(3-(2-((1-(2-(((R)-4-((S)-4-acryloyl-3-(cyanomethyl)piperazin-1-yl)-6-chloro-8-fluoro-7-(3-hydroxynaphthalen-1-yl)quinazolin-2-yl)oxy)ethyl)piperidin-4-yl)oxy)ethoxy)isoxazol-5-yl)-3-methylbutanoyl)-4-hydroxy-N-((S)-1-(4-(4-methylthiazol-5-yl)phenyl)ethyl)pyrrolidine-2-carboxamide] | C (C ≤ 35) | B (35 < B < 70) | B (35 < B < 70) | 100 to 1000 nM | – | – | –
C=CC(=O)N1CCN(c2nc(OCCN3CCC(COCC(=O)N[C@H](C(=O)N4C[C@H](O)C[C@H]4C(=O)N[C@@H](C)c4ccc(-c5scnc5C)cc4)C(C)(C)C)CC3)nc3c(F)c(-c4cc(O)cc5ccccc45)c(Cl)cc23)CC1 (atropisomer, axis not shown) [Compound 9, (2S,4R)-1-[(2S)-2-(2-{[1-(2-{[6-chloro-8-fluoro-7-(3-hydroxynaphthalen-1-yl)-4-[4-(prop-2-enoyl)piperazin-1-yl]quinazolin-2-yl]oxy}ethyl)piperidin-4-yl]methoxy}acetamido)-3,3-dimethylbutanoyl]-4-hydroxy-N-[(1S)-1-[4-(4-methyl-1,3-thiazol-5-yl)phenyl]ethyl]pyrrolidine-2-carboxamide] | A (A ≥ 70) | A (A ≥ 70) | A (A ≥ 70) | 100 to 1000 nM | – | – | –
C=CC(=O)N1CCN(c2nc(O[C@H](C)CN3CCC(OCCOCC(=O)N[C@H](C(=O)N4C[C@H](O)C[C@H]4C(=O)N[C@@H](C)c4ccc(-c5scnc5C)cc4)C(C)(C)C)CC3)nc3c(F)c(-c4cc(O)cc5ccccc45)c(Cl)cc23)CC1 (atropisomer, axis not shown) [Compound 86, (2S,4R)-1-[(2S)-2-{2-[2-({1-[(2R)-2-{[6-chloro-8-fluoro-7-(3-hydroxynaphthalen-1-yl)-4-[4-(prop-2-enoyl)piperazin-1-yl]quinazolin-2-yl]oxy}propyl]piperidin-4-yl}oxy)ethoxy]acetamido}-3,3-dimethylbutanoyl]-4-hydroxy-N-[(1S)-1-[4-(4-methyl-1,3-thiazol-5-yl)phenyl]ethyl]pyrrolidine-2-carboxamide] | – | – | – | 100 to 1000 nM | – | – | Dmax (HiBit-KRAS^G12C [1]; 0.1% DMSO, read-out: KRas^G12C-HiBiT (MiaPaCa; 0.1% DMSO) DMax): 35 to 70%; Dmax (HiBit-KRAS^G12C [1]; 0.5% DMSO, read-out: KRas^G12C-HiBiT (MiaPaCa; 0.5% DMSO) DMax): 35 to 70%; Dmax (HiBit-KRAS^G12C [2]; 0.1% DMSO, read-out: KRas^G12C-HiBit (SW1573; 0.1% DMSO) Dmax**): 35 to 70%; Dmax (HiBit-KRAS^G12C [2]; 0.5% DMSO, read-out: KRas^G12C-HiBiT (SW1573; 0.5% DMSO) Dmax**): 35 to 70%
C=CC(=O)N1CCN(c2nc(OCCN3CCC4(CC3)CN(c3cc([C@@H](C(=O)N5C[C@H](O)C[C@H]5C(=O)N[C@@H](C)c5ccc(-c6ccnn6C)cc5)C(C)C)on3)C4)nc3c(F)c(-c4cc(O)cc5ccccc45)c(Cl)cc23)C[C@@H]1CC#N (atropisomer, axis not shown) [Compound 101, (2S,4R)-1-[(2S)-2-(3-{7-[2-({6-chloro-4-[(3S)-3-(cyanomethyl)-4-(prop-2-enoyl)piperazin-1-yl]-8-fluoro-7-(3-hydroxynaphthalen-1-yl)quinazolin-2-yl}oxy)ethyl]-2,7-diazaspiro[3.5]nonan-2-yl}-1,2-oxazol-5-yl)-3-methylbutanoyl]-4-hydroxy-N-[(1S)-1-[4-(1-methyl-1H-pyrazol-5-yl)phenyl]ethyl]pyrrolidine-2-carboxamide] | – | – | – | – | > 1000 nM | > 1000 nM | –
C=C(F)C(=O)N1CCN(c2nc(OCCN3CCC4(CC3)CN(c3cc([C@@H](C(=O)N5C[C@H](O)C[C@H]5C(=O)N[C@@H](C)c5ccc(-c6ccnn6C)cc5)C(C)C)on3)C4)nc3c(F)c(-c4cc(O)cc5ccccc45)c(Cl)cc23)C[C@@H]1CC#N (atropisomer, axis not shown) [Compound 103, (2S,4R)-1-[(2S)-2-(3-{7-[2-({6-chloro-4-[(3S)-3-(cyanomethyl)-4-(2-fluoroprop-2-enoyl)piperazin-1-yl]-8-fluoro-7-(3-hydroxynaphthalen-1-yl)quinazolin-2-yl}oxy)ethyl]-2,7-diazaspiro[3.5]nonan-2-yl}-1,2-oxazol-5-yl)-3-methylbutanoyl]-4-hydroxy-N-[(1S)-1-[4-(1-methyl-1H-pyrazol-5-yl)phenyl]ethyl]pyrrolidine-2-carboxamide] | – | – | – | – | > 1000 nM | 100 to 1000 nM | –
C=CC(=O)N1CCN(c2nc(OCCN3CCC(COc4cc([C@H](C(=O)N5C[C@H](O)C[C@H]5C(=O)N[C@@H](C)c5ccc(-c6scnc6C)cc5)C(C)C)on4)CC3)nc3c(F)c(-c4cc(O)cc5ccccc45)c(Cl)cc23)C[C@@H]1CC#N (atropisomer, axis not shown) [Compound 104, (2S,4R)-1-[(2R)-2-[3-({1-[2-({6-chloro-4-[(3S)-3-(cyanomethyl)-4-(prop-2-enoyl)piperazin-1-yl]-8-fluoro-7-(3-hydroxynaphthalen-1-yl)quinazolin-2-yl}oxy)ethyl]piperidin-4-yl}methoxy)-1,2-oxazol-5-yl]-3-methylbutanoyl]-4-hydroxy-N-[(1S)-1-[4-(4-methyl-1,3-thiazol-5-yl)phenyl]ethyl]pyrrolidine-2-carboxamide] | – | C (C ≤ 35) | – | – | 100 to 1000 nM | 100 to 1000 nM | KRas^G12C-HiBiT (SW1573; 0.5% DMSO) Dmax** (HiBit-KRAS^G12C [2]; SW1573 HiBit-KRas^G12C, 0.5% DMSO): C (C ≤ 35)
